The subject of assay [1] is hypogastric nerve stimulation-induced increases in intraurethral pressure and phenylephrine-induced increases in diastolic blood pressure. Put plainly: In vivo intraurethral and blood pressure assay in anesthetized dog. The conditions noted are these: anesthetized male mongrel dog, i.v. bolus, increasing doses. The procedure: The following describes an in vivo assay for measuring the relative effect of test compounds on hypogastric nerve stimulation-induced increases in intraurethral pressure and phenylephrine-induced increases in diastolic blood pressure in anesthetized dog.
Male Mongrel dogs (10 to 20 kg) were-fasted for 12 to 18 hours and anesthetized with phenobarbital sodium (36 mg/kg, i.v.). An endotracheal tube was inserted and thereafter the lungs were mechanically ventilated with room air. The right femoral vein was isolated and cannulated with two polyethylene cannulae, one for the administration of a continuous infusion of phenobarbital sodium (5 to 10 mg/kg/hr) and the other for bolus administration of test substances. The right femoral artery was isolated and cannulated to the abdominal aorta with a fluid filled polyethylene cannula connected to an external pressure transducer for monitoring diastolic aortic pressure (DAP). The bladder was exposed via a ventral midline abdominal incision and emptied of urine through a 22 gauge needle. The bladder was cannulated through a stab incision with a water filled balloon catheter connected to an external pressure transducer for monitoring prostatic intraurethral pressure (IUP). The right hypogastric nerve (HGN) was carefully isolated and attached to a Dastre's electrode for nerve stimulation. […]

In a further assay the target is T1, alpha1B adrenoceptor (Homo sapiens, UniProt P35368).
T1 construct: expressed in transfected cells; host or cells: CHO-K1
T1 sequence (P35368 1-520): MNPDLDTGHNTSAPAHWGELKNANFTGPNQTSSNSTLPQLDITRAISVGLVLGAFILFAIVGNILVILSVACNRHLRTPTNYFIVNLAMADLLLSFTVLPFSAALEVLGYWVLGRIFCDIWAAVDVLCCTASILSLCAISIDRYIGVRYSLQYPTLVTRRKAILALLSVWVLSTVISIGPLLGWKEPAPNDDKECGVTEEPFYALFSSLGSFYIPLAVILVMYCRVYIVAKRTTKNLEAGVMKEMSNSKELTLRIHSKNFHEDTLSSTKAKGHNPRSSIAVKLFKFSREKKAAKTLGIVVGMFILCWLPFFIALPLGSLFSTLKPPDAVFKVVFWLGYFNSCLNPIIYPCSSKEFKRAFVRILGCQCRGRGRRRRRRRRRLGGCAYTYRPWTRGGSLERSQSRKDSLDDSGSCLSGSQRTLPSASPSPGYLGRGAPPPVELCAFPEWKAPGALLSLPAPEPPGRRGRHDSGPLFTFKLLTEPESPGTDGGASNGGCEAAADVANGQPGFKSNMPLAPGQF
The assay is described as follows: [3H]prazosin binding (alpha1-adrenoceptor) assay, alpha 1B. The conditions noted are these: transfected CHO-K1 cell membranes, read-out: pKi alpha 1B (converted). The procedure:
(§1) Alpha1 A, alpha1B, and alpha1D adrenoceptor transfected CHO-K1 cells, prepared using the methods described by Chang et al., FEBS Lett. 1998, 422:279-283, were grown to confluence in T-162 tissue culture flasks in Ham's F-12 culture medium supplemented with 10% fetal bovine serum, geneticin (150 μg/mL) and streptomycin/penicillin (30 μg/mL/30 μg/mL) at 37° C. in 7% CO2. Cells were harvested by incubating with phosphate-buffered saline (PBS) containing 30 μM EDTA for 5-10 min at 37° C. Cells were pelleted by centrifuging at 500×g for 5 min, and the pelleted cells were homogenized (Polytron homogenizer) in 10 vols (w/v) of 50 mM Tris, 1 mM EDTA, (homogenisation buffer, pH 7.4 at 4° C.). The homogenate was centrifuged at 45,000×g for 20 min. The pellet was resuspended in the homogenizing buffer and rehomogenized. The resulting homogenate was centrifuged at 45,000×g for 20 min. The pellet was resuspended in 50 mM Tris buffer (pH 7.4 at 4° C.), aliquoted, frozen, and stored at −80° C. for further use.
(§2) The membranes were thawed at rt and diluted in assay buffer (50 mM Tris buffer at […]) at 37° C. and homogenized using the Polytron tissue disrupter. The membranes were incubated with the radioligand ([^3H]prazosin, NEN, 0.1-0.5 nM) and test compound at 37° C. for 30 min. The membranes were then filtered over polyethyleneimine-treated GF/B unifilter plates using a Packard Filtermate Harvester and washed with ice-cold 50 mM Tris-HCl, 1 mM EDTA buffer (3×3 sec. washes). Scintillation cocktail was added to the filter plates and bound radioligand determined by liquid scintillation spectrophotometry.
(§3) For each experiment, total binding (in the absence of any test or reference compounds) and non-specific binding (10 μM phentolamine) were determined. For each sample tested, the concentration producing 50% inhibition of binding (IC50) and Hill Slope (nH) was determined using iterative non-linear curve fitting techniques with Kaleidagraph (Synergy Software) or other appropriate software. If the radioligand KD was known, the inhibition dissociation constant (KI) of each ligand was determined according to the method of Cheng and Prusoff (Cheng, Y-C. and Prusoff, W. H., Biochem.Pharmacol., 1973, 22, 3099-3108).

In the next assay the target is T2, alpha1D adrenoceptor (Homo sapiens, UniProt P25100).
T2 construct: expressed in transfected cells; host or cells: CHO-K1
T2 sequence (P25100 1-572): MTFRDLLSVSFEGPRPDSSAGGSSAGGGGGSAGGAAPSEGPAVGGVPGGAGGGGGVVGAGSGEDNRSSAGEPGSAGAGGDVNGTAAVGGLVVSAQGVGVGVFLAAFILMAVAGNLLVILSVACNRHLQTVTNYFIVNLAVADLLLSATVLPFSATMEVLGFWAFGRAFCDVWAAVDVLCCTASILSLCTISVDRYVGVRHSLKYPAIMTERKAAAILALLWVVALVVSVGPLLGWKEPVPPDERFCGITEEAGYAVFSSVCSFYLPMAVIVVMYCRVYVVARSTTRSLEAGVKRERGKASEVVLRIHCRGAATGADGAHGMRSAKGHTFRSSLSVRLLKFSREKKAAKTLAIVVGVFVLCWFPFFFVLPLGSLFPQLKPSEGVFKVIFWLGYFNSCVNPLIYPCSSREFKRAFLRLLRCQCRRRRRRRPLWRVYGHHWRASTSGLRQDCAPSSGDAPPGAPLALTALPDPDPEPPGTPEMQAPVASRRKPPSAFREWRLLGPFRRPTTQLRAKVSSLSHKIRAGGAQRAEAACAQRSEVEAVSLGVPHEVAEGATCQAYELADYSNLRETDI
Put plainly: [3H]prazosin binding (alpha1-adrenoceptor) assay, alpha 1D. Conditions: transfected CHO-K1 cell membranes, read-out: pKi alpha 1D (converted). The method, then:
as §1, §2, §3

The target of another assay is T3, alpha1A adrenoceptor (Homo sapiens, UniProt P35348).
T3 construct: expressed in transfected cells; host or cells: CHO-K1
T3 sequence (P35348 1-466): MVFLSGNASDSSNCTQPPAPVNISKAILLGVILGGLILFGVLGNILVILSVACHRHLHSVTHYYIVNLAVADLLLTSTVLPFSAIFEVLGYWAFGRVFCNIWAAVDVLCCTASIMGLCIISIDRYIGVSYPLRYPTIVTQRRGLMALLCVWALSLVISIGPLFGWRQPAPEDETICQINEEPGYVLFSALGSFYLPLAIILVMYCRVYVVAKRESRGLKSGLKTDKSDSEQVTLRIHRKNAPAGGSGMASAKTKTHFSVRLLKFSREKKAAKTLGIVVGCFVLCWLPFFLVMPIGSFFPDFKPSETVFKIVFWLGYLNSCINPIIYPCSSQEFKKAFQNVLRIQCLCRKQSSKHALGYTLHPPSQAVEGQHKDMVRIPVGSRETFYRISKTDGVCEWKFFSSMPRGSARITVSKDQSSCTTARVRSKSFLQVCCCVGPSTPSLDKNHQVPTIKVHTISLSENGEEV
The assay is described as follows: [3H]prazosin binding (alpha1-adrenoceptor) assay, alpha 1A. Conditions: transfected CHO-K1 cell membranes, read-out: pKi alpha 1A (converted). The method, then: as §1, §2, §3

4 compounds from patent publication US20050124607A1, “5-Substituted quinazolinone compounds useful as alpha 1A/B adrenergic receptor antagonists” (priority 2003, published 2005) can be followed below.

On to `COc1cc2nc(N3CCN(C(=O)c4ccco4)CC3)nc(N)c2cc1OC` [prazosin], for which, in assay [1], the “inhibition of HGN stimulation-induced increases in IUP and PE-induced increases in DAP” value is “inhibited increases in IUP and DAP in similar fashion”.

`COc1cc2[nH]c(N3CCC4(CC3)CN(c3ccc(F)cc3)C(=O)CO4)nc(=O)c2c(OC)c1OC`: the Ki on alpha1B adrenoceptor was 13.8 nM; on alpha1D adrenoceptor, 257 nM; at alpha1A adrenoceptor, 6.17 nM.

In the case of `CNCC(=O)N(C)Cc1cccc2c1CCN(c1nc(=O)c3c(C)c(OC)c(OC)cc3[nH]1)C2` [N-[2-(6,7-Dimethoxy-5-methyl-4-oxo-1,4-dihydro-quinazolin-2-yl)-1,2,3,4-tetrahydro-isoquinolin-5-ylmethyl]-N-methyl-2-methylamino-acetamide], the Ki on alpha1B adrenoceptor was 1.58 nM; on alpha1D adrenoceptor, 79.4 nM; at alpha1A adrenoceptor, 1.58 nM.

For `COc1cc2[nH]c(N3CCC(CCn4ccnc4)CC3)nc(=O)c2c(C)c1OC` [2-[4-(2-Imidazol-1-yl-ethyl)-piperidin-1-yl]-6,7-di-methoxy-5-methyl-1H-quinazolin-4-one], the Ki at alpha1B adrenoceptor was 2.19 nM; on alpha1D adrenoceptor, 87.1 nM; on alpha1A adrenoceptor, 5.25 nM.
